What was measured:
antibody 2D12.5 = experiment: Competitive immunoassay (ELISA) of metal chelate binding; design: species or system mouse
Text: FIG. 9 Relative binding of metal-(S)NBD complexes to antibody 2D12.5. A representative set of competitive binding curves obtained from ELISA experiments. Distance between midpoints is related to difference between dissociation constants. Error bars (representing the standard error of the mean) are shown but are generally smaller than the data points.
FIG. 14 Binding of yttrium chelates with different stereochemistry to antibody 2D12.5, showing that the antibody binds a chelate with the side chain in the R configuration approximately one order of magnitude less well than the S configuration. […] Error bars are smaller than the data symbols. Data were generated by competitive ELISA.
A competitive immunoassay to measure the binding constants of various metal-(S)NBD complexes relative to the original Y^3+ complex (FIG. 9) was developed to assess the metal selectivity of antibody 2D12.5. Briefly, 2D12.5 was incubated at 37° C. in the presence of immobilized HSA-21T-Y-(S)BAD and a soluble metal-(S)NBD competitor (Y-(S)BAD was linked to human serum albumin via 2-iminothiolane). The metal-(S)NBD concentration was varied from μM to pM in order to determine the relative binding affinity of 2D12.5 for each metal chelate in comparison to Y-(S)NBD. […] Other antibodies that bind metal chelates do so with a strong preference for one or possibly two metals (Love, R. et al., Biochemistry 32, 10950-10959 (1993), and Khosraviani, M., et al., (2000) Bioconjugate Chem., 11, 267-277). For example, the (S)NBD chelate of group IIIB ion Sc(III) binds to the antibody with a much lower affinity (<1%) than the strongest binding rare earth complexes, perhaps because Sc(III) has a much smaller ionic radius (Meehan, P. R., et al., Coord. Chem. Rev., 181, 121145, and Shannon, R. D. (1976) Acta Crystallogr., Sect. A: Found. Crystallogr., A32, 751-767).

Fab S95C = experiment: Covalent attachment of 111In-chelates to engineered Fab S95C (SDS-PAGE); assay type: binding; details: physiological pH and temperature, raw culture medium with 10% fetal calf serum
Experimental: FIG. 5 Conjugation of electrophilic ^111In-benzyl-EDTA derivatives with engineered Fab S95C. Phosphorimage of 10-20% SDS-PAGE gel of samples of complete culture media incubated with ^111In-labeled (A) CABE, (B) CpABE, (C) AABE, and (D) ABE. The radiolabeled light chains migrate near 25 Kd.
To investigate whether either the S95C or the N96C Fab would bind irreversibly to its target, ^111In-labeled chelates bearing electrophilic groups were incubated at physiological pH and temperature with raw tissue culture medium from the cells expressing these recombinant proteins. The culture medium contained 10% fetal calf serum, representative of typical biological media.
The samples were analyzed by denaturing gel electrophoresis (SDS-PAGE). Separation under reducing and denaturing conditions on SDS-PAGE separates the light chain from the heavy chain of each Fab, functionally destroying the antibody-binding pocket. Chelates bound to the Fab but not covalently linked will dissociate because the antibody-binding pocket is no longer folded. […] However, a chelate that not only bound to a Fab but also covalently linked will be attached to the Fab light chain and migrate with it on SDS-PAGE.

G54C mutant of 2D12.5 = experiment: Permanent binding to G54C, competitive 90Y-AABD attachment, SDS-PAGE; details: 37° C.
Experimental: FIG. 17 a) Scheme describing the permanent binding pair. b) Infinite binding is observed not only for ^90Y-AABD but also for ^111In-AABD, assayed by SDS-PAGE under denaturing conditions where only permanently bound complexes remain attached to the antibody.
FIG. 18 The G54C mutant was preincubated in triplicate with 10 μM AABD complexes of Y^3+, In^3+ or Cu^2+, a negative control N-(1-carbamoyl-2-(4-nitrophenyl)-ethyl)-acrylamide or N-(4-carboxymethylphenyl)-acrylamide, or just buffer, for 5 min, 20 min or 120 min at 37° C., pH 7.5. At the stated times ^90Y-AABD (1 μM) was added to each solution to compete for free G54C. Permanent binding was assayed by measuring band intensities after SDS-PAGE. a) Phosphorimage of gel. The fainter the bands, the greater the permanent binding by the unlabeled ligand. b) Crystal structures of Y-DOTA, In-DOTA-mono(p aminoanilide) (some atoms removed for clarity) and Cu-DOTA.
FIG. 19 a) Metal-AABD (10 μM) complexes were preincubated separately with aliquots of G54C for 5 min, followed by addition of 1 μM ^90Y-AABD, which competes for free G54C, and SDS-PAGE analysis. b) From quantitative phosphorimaging, the highest-affinity AABD complexes form permanent bonds with G54C with higher yields than more 3+weakly binding rare earth-AABD complexes whose ionic radii are slightly smaller (Lu Yb^3+) or larger (Ce^3+, La^3+) than ideal.
We were curious to see if an even weaker binder such as a copper chelate (KD˜10^−4 M for Cu-NBD) would bind irreversibly under ordinary conditions. We tested this by comparing the permanent binding of Y^3+-, In^3+-, and Cu^2+-AABD, using competitive ^90Y-AABD attachment as an indicator (FIG. 18). […] Weaker binding In-AABD blocks >50% of the sites after 5 min preincubation, and even more at later times. Very weakly binding Cu-AABD initially occupies only about 10% of the G54C sites under these conditions, but it has permanently attached to G54C in good yield after 2 hr, blocking>70% of the sites.

HLA-DR10 = experiment: Gel shift assay of permanent attachment of sL1 mutants (western blot); assay type: binding; details: for cross-linking of linker-activated T97C to HLA-DR10: sL1 mutant T97C activated with electrophile, 19 h incubation, western blot
Text: FIG. 25 Gel shift assay of permanent attachment of sL1 to HLA-DR: western blot stained with anti-HLA-DR10β (antibody HL-40). The glycosylated β subunit of HLA-DR10 runs approximately 28-34 kDa, so the cross-linked sL1-HLA-DR10β should run at 57-63 kDa (bands in lanes 5 and 10). Lanes 2-6 are cysteine mutant F96C and lanes 7-11 are cysteine mutant T97C. Lanes 2 and 7 are sL1 mutant only; lanes 3 and 8 are sL1 mutant and HLA-DR10 target; lanes 4 and 9 are sL1 mutant and electrophile (no target); lanes 5 and 10 are the complete experiment: sL1 mutant, electrophile, and target; and lanes 6 and 11 are sL1 mutant with electrophile and recombinant human serum albumin as a negative control. Lnkr: nitrophenyl ester; Trgt: HLA-DR10.
Irreversible Binding Studies of sL1 and HLA-DR10 The general strategy for the development of an irreversibly binding Lym1 sFv (sL1) is outlined in FIG. 24. Lym-1 scFv (sL1) is genetically altered to incorporate a cysteine residue in various positions of one of the six CDRs. This free sulfhydryl is then activated with an alkylbromoacetate consisting of varied R-groups (see FIG. 34) which modify the reactivity of the covalent bond formation. The activated sL1 is then incubated with a crude mixture containing the target protein. The mixture is loaded on a SDS-PAGE gel and then investigated for the appearance of new, high molecular weight bands corresponding to the conjugation of the target protein and the sL1.
The general experimental protocol for the gel shift assays in the figures is as follows. An aliquot of concentrated P. pastoris expression media containing an sL1 mutant (8-10 μL, positive by anti-V5 stain for sL1 and dialyzed into 10 mM HEPES buffer pH 8.0), is incubated for 15 min with a chosen bromoacetate ester (e.g., nitrophenyl bromoacetate) at a concentration of 10 mM, to alkylate the Cys sidechain. […] Reducing SAB is added to each sample, followed by SDS-PAGE and western blotting.

[1] = Whole-body clearance of indium-111 labeled electrophilic benzyl-EDTA derivatives; assay type: in vivo; details: indium-111 labeled chelate, BALB/c mice; for apparent half-life, whole-body clearance: after tail-vein injection
Experimental: FIG. 4 Whole-body clearance of indium-^111I labeled electrophilic derivatives of benzyl-EDTA from BALB/c mice after tail-vein injection. Here the objective was to find an electrophilic chelate that clears from the animal quickly when not captured by an engineered CHA255.
As reactive ligands, a small set of chelates bearing electrophilic para substituents (FIG. 3) that could react with cysteine were prepared. To be most useful, the electrophilic ligands should be stable in biological media so that they not react prematurely with common biological nucleophiles such as the cysteine on glutathione or in albumin (Geigy Scientific Tables Vol 3, C. Lentner, ed., Ciba-Geigy Ltd., Basel, Switz (1984)). The whole-body clearance of the radiolabeled chelates from mice was studied (FIG. 4 and Chmura, A. J., et al., J. Controlled Release 78:249-258 (2002)) to identify the electrophilic chelates that are unreactive in plasma in vitro, and which also quantitatively clear from live animals.

avidin = avidin (Gallus gallus, UniProt P02701); details: cited from earlier work
HLADR = experiment: Monovalent binding of Lym-1 single-chain antibody
Text: This is a combination of (1) the behavior characteristic of a weak binder, which should permeate a tumor, and (2) the behavior of an extremely strong binder, which should ultimately lock onto its targets throughout the tumor. This combination of good penetration and permanent binding is a unique and revolutionary aspect of this technology.

Chain of avidin (P02701 25-152): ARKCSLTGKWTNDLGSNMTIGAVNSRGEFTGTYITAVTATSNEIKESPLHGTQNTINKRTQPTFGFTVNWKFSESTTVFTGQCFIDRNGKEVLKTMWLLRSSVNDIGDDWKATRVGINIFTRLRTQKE

O=C(O)CN1CCN(CC(=O)O)CCN(CC(=O)O)[C@@H](Cc2ccc([N+](=O)[O-])cc2)CN(CC(=O)O)CC1 [Gd-(S)NBD, (S)-2-(4-nitrobenzyl)-DOTA]
relative binding to 2D12.5 (antibody 2D12.5; competitive ELISA): bind more tightly than the original Y^3+ complex

(S)-1-p chloropropionamidobenzyl-EDTA [CpABE]
covalent attachment to Fab S95C light chain (Fab S95C): not

O=C(O)CN1CCN(CC(=O)O)CCN(CC(=O)O)[C@@H](Cc2ccc([N+](=O)[O-])cc2)CN(CC(=O)O)CC1 [La-(S)NBD, (S)-2-(4-nitrobenzyl)-DOTA]
ΔΔG relative to the Y-(S)NBD complex (antibody 2D12.5; competitive ELISA): 0.693 kcal/mol

O=C(O)CN1CCN(CC(=O)O)CCN(CC(=O)O)CCN(CC(=O)O)CC1 [Y-DOTA, 1,4,7,10-tetraazacyclododecane-N,N′,N″,N′″-tetraacetic acid]
relative binding to 2D12.5 (antibody 2D12.5; competitive ELISA): lower than Y-(S)NBD but higher than Y-(R)NBD
relative binding to 2D12.5 (antibody 2D12.5; competitive ELISA, listed as Yttrium-DOTA): approximately in the middle

C=CC(=O)Nc1ccc(C[C@H]2CN(CC(=O)O)CCN(CC(=O)O)CCN(CC(=O)O)CCN2CC(=O)O)cc1 [In-AABD, (S)-2-(4-acrylamidobenzyl)-DOTA]
G54C sites blocked from 90Y-AABD (G54C mutant of 2D12.5; 10 μM complex, preincubation 5 min, pH 7.5): > 50%
permanent binding to G54C (G54C mutant of 2D12.5; pH 7.5, SDS-PAGE, listed as 111In-AABD): binds permanently

O=C(CBr)Oc1ccccc1 [phenylbromoacete]
cross-linking of linker-activated T97C to HLA-DR10 (HLA-DR10): mild reactivity

O=C(O)CN(CC(=O)O)CC(Cc1ccc(NC(=O)CCl)cc1)N(CC(=O)O)CC(=O)O (centres unmarked) [CABE, chloroacetamidobenzyl-EDTA]
whole-body clearance [1]: remain in the animals
apparent half-life, whole-body clearance [1]: 9 h
covalent attachment to Fab S95C light chain (Fab S95C): reacted equally well

nitrophenylbromoacetate
cross-linking of linker-activated T97C to HLA-DR10 (HLA-DR10): strong cross-linking

O=C(O)CN(CC(=O)O)CC(Cc1ccc(NC(=O)CBr)cc1)N(CC(=O)O)CC(=O)O (centres unmarked) [BABE, bromoacetamidobenzyl-EDTA]
whole-body clearance [1]: remain in the animals
apparent half-life, whole-body clearance [1]: 41 h

O=C(O)CCCC[C@@H]1SC[C@@H]2NC(=O)N[C@@H]21 [biotin]
KA (avidin): ~4e+09 M⁻¹

O=C(O)CN1CCN(CC(=O)O)CCN(CC(=O)O)[C@@H](Cc2ccc([N+](=O)[O-])cc2)CN(CC(=O)O)CC1 [Y-(S)NBD, (S)-2-(4-nitrobenzyl)-DOTA]
Kd (antibody 2D12.5; 37° C., competitive immunoassay): 10 nM

C=CC(=O)Nc1ccc(C[C@H]2CN(CC(=O)O)CCN(CC(=O)O)CCN(CC(=O)O)CCN2CC(=O)O)cc1 [Cu-AABD, (S)-2-(4-acrylamidobenzyl)-DOTA]
G54C sites initially occupied (G54C mutant of 2D12.5; 10 μM complex, pH 7.5): about 10%
G54C sites blocked from 90Y-AABD (G54C mutant of 2D12.5; 10 μM complex, after 2 hr, pH 7.5): > 70%

B1: sL1: Lym-1 single-chain antibody, no cysteine mutation (protein)
scFv: RSQVQLKESGPGLVAPSQSLSITCTISGFSLTSYGVHWVRQPPGKGLEWLVVIWSDGSTTYNSALKSRLSISKDNSKSQVFLKMNSLQTDDTAIYYCASHYGSTLAFASWGHGTLVTVSAGGGGSGGGGSGGGGSDIQMTQSPASLSASVGETVTIICRASVNIYSYLAWYQQKQGKSPQLLVYNAKILAEGVPSRFSGSGSGTQFSLKINSLQPEDFGSYYCQHHYGTFTFGSGTKLEIKSRGPFEGKPIPNPLLGLDSTRTGHHHHHH
permanent attachment (cross-linking) to HLA-DR10β (HLA-DR10; sL1 construct treated with nitrophenyl ester, 37° C., 4 hr, western blot with HL-40): no reactive band appeared
monovalent affinity (HLADR): too weak to measure confidently, but probably in the micromolar range

Source: patent publication US20060063209A1, “Engineered antibody fragment that irreversibly binds an antigen” (THE REGENTS OF THE UNIVERSITY OF CALIFORNIA, priority 2004, published 2006)
